According to ChEMBL document CHEMBL4359921, “Discovery of potent 4-aminoquinoline hydrazone inhibitors of NRH:quinoneoxidoreductase-2 (NQO2)” (Eur J Med Chem, 2019):

What was measured:
[1] = test system: SK-OV-3; assay: Cytotoxicity against human SKOV3 cells assessed as reduction in cell viability incubated for 24 hrs by MTT assay; conditions: SK-OV-3, 24 h
[2] = test system: SK-OV-3; assay: Cytotoxicity against human SKOV3 cells assessed as reduction in cell viability incubated for 96 hrs by MTT assay; conditions: SK-OV-3, 96 h
[3] = test system: SK-OV-3; assay: Cytotoxicity against human SKOV3 cells transfected with non-targeted vector assessed as reduction in cell viability incubated for 96 hrs in presence of doxycycline by MTT assay; conditions: SK-OV-3, 96 h
[4] = test system: SK-OV-3; assay: Cytotoxicity against human SKOV3 cells transfected with shRNA assessed as reduction in cell viability incubated for 96 hrs in presence of doxycycline by MTT assay; conditions: SK-OV-3, 96 h
[5] = test system: TOV112D; assay: Cytotoxicity against human TOV112D cells transfected with empty vector assessed as reduction in cell viability incubated for 96 hrs by MTT assay
[6] = test system: TOV112D; assay: Cytotoxicity against human TOV112D cells expressing NQO2 assessed as reduction in cell viability incubated for 96 hrs by MTT assay
[7] = target: NAD(P)H dehydrogenase [quinone] 1 (Homo sapiens, UniProt P15559); assay: Inhibition of recombinant human NQO1 expressed in Escherichia coli using DCPIP as substrate by spectrophotometry
Sequence of NAD(P)H dehydrogenase [quinone] 1 (P15559 whole entry): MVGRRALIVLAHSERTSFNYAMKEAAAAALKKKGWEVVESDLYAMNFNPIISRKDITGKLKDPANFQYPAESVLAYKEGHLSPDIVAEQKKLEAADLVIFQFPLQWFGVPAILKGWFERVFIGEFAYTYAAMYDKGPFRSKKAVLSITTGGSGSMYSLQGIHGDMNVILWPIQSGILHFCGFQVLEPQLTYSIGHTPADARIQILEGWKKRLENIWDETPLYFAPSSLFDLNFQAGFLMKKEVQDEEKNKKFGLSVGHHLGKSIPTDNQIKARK

| Compound | IC50 [1] | IC50 [2] | IC50 [3] | IC50 [4] | IC50 [5] | IC50 [6] | IC50 [7] | IC50 ([7]; read-out: IC50) |
| --- | --- | --- | --- | --- | --- | --- | --- | --- |
| COc1ccc2nc(C)cc(N/N=C/c3cccc(OC)c3O)c2c1 | 2.1 µM | 2 µM | 2.7 µM | 2.78 µM | 3.4 µM | 3.77 µM | – | – |
| COc1ccc2nc(C)cc(N/N=C/c3ccccc3)c2c1 | 1.77 µM | 1.73 µM | – | – | – | – | – | – |
| COc1ccc2nc(C)cc(N/N=C/c3ccc(F)cc3)c2c1 | 2.3 µM | 2.3 µM | – | – | – | – | – | – |
| COc1ccc2nc(C)cc(N/N=C/Cc3ccccc3)c2c1 | 50 µM | 40.7 µM | 44.7 µM | 49.7 µM | 42.5 µM | 41 µM | Not Active | – |
| COc1ccc2nc(C)cc(N/N=C/c3ccc(O)cc3)c2c1 | 2.75 µM | 2.3 µM | 2.87 µM | 2.58 µM | 3.17 µM | 2.98 µM | – | – |
| COc1ccc2nc(-c3ccccc3)cc(N/N=C/c3c[nH]cn3)c2c1 | 2.47 µM | 2.17 µM | – | – | – | – | – | 0.425 µM |
| COc1ccc2nc(C)cc(NNC(=O)c3ccc(F)cc3)c2c1 | > 100 µM | > 100 µM | > 100 µM | > 100 µM | 61.3 µM | 57.3 µM | Not Active | – |
| COc1ccc2nc(-c3ccccc3)cc(N/N=C/c3cccnc3)c2c1 | 2.8 µM | 2.2 µM | – | – | – | – | Not Active | – |
| COc1ccc2nc(-c3ccccc3)cc(N/N=C/c3cccc(OC)c3O)c2c1 | 2.88 µM | 2.73 µM | – | – | – | – | Not Active | – |
| COc1ccc2nc(C)cc(NN)c2c1 | 84 µM | 41 µM | – | – | – | – | – | – |
| COc1ccc2nc(-c3ccccc3)cc(N/N=C/c3ccc(N(C)C)cc3)c2c1 | 1.57 µM | 1.53 µM | – | – | – | – | – | – |
| COc1ccc2nc(C)cc(NNC(=O)c3ccccc3)c2c1 | 68.3 µM | 43.3 µM | – | – | – | – | – | – |
| COc1ccc2nc(C)cc(N/N=C/c3ccc(C(=O)O)cc3)c2c1 | > 100 µM | 70 µM | 65 µM | 61.3 µM | > 100 µM | > 100 µM | Not Active | – |
| COc1ccc2nc(C)cc(N/N=C/c3c[nH]cn3)c2c1 | 32 µM | 4.2 µM | 6.9 µM | 6.73 µM | 3.65 µM | 3.72 µM | – | – |
| Nc1c2ccccc2nc2ccccc12 [AMINACRINE] | 5.43 µM | 2.78 µM | 2.53 µM | 2.57 µM | 3.6 µM | 3.15 µM | – | – |
| Oc1ccc(/C=C/c2cc(O)cc(O)c2)cc1 [RESVERATROL] | 91.7 µM | 36.3 µM | 29 µM | 39.7 µM | 10.7 µM | 11 µM | – | – |
